# Data reported in patent publication US10736968B2, “Cellular signalling inhibitors, their formulations and methods thereof” (INVICTUS ONCOLOGY PVT. LTD., priority 2016, dated 2020).
# Tested on: monocytes
# Test: M1/M2 marker expression in IL-4 treated monocytes (FACS)
# Format: cell-based
# Conditions: IL4 24 hours then inhibitor 24 h, CD206, MHC-II, CD86, CD80
# Protocol: FIG. 4. Effect of BLZ-945 and BLN101 (formulated as AK750) in repolarization of the M2-macrophage phenotype formed upon stimulation with IL-4 to the M1-macrophage phenotype. Monocytes were treated with IL-4 for 24 hours, followed by which they were treated with BLZ-945 or BLN101 (formulated as AK750) in basal DMEM media, and cells were collected at different time points. M1 and M2 markers expression on the macrophages and their isotype control was evaluated separately by FACS. Graph represents the representative M1/M2 ratio by taking into account the various individual M1 and M2 markers that were analyzed using FACS. Data are representative of 3 separate experiments.
# Activity Studies of Compound of Formula I • Efficacy of BLN101 vs BLZ945 on the ability to inhibit CSF1R in vitro is studied. RAW264.7 cells are treated with BLZ945 (67 nM) or BLN101 (67 nM) for different time points, at the end of which the cells were exposed to CSF1 (10 ng/ml) for 20 min. The cells were then lysed and analyzed for phosphorylated CSF1R levels. […] Efficacy of BLN101 (in formulation AK750) vs BLZ945 on increase in iNOS expression in vitro is studied. […] At different time-points, the cells are harvested and analyzed the population for M1 (MHCII+, CD86+, CD80+) or M2 (CD206+) markers using fluorescence activated cell sorting (FIG. 5d). […]
compound,measurement,value
CNC(=O)c1cc(Oc2ccc3nc(NC4CCCC[C@H]4OC(=O)CCC(=O)O[C@H]4CC[C@@]5(C)C(=CC[C@H]6[C@@H]7CC[C@H](C(C)CCCC(C)C)[C@@]7(C)CC[C@@H]65)C4)sc3c2)ccn1 (stereo in doubt) [BLN101],M1 and M2 macrophage markers,significantly increases the markers associated with M1 macrophages while reducing the M2 macrophage markers
